Like-named read-outs stand apart in the source and are kept apart here.
Tests used:
[1] = for Stability RE (%): rat plasma, n = 6
Description: A series concentration mixed reference solution with different concentrations was added to 100 μL plasma, and was treated according to the method under Section 4.6 to obtain the matrix standard curve sample. Samples with concentrations of 400, 100, and 10 ng/mL, respectively, were taken as quality control (QC) samples of high, medium, and low concentrations (HQC, MQC, LQC). The method was validated, including linearity, inter-day/intra-day precision, repeatability, stability, extraction recovery, and matrix effect, according to FDA bioanalytical method validation guidelines.

[2] = PK of five RC components in pituitrin-induced myocardial ischemia (MDG) rats after oral RC extract, HPLC-QQQ-MS/MS, DAS; type: in vivo, SD rats; settings: SD, rat, in vivo, po, 2 g/kg
Description: (§1) The drug concentration in plasma was calculated using the standard curve, and the mean blood concentration was plotted against the time to obtain the mean blood concentration–time curve (Figure 4).
(§2) The rat model of MI was made with Pit. The rats were divided into a sham operation group (SG), sham operation administration group (SDG), model group (MG), and model administration group (MDG) (n = 6 for each group). The MI model was prepared via an intraperitoneal injection (a single time) of Pit in the MG and MDG, with a dosage of 20 U/kg and a volume of 10 mL/kg. At the same time, the rats in the SG and SDG groups were given the same volume of saline in the same way.
(§3) RC extract (2 g/kg, equivalent to human clinical equivalent dose) was given to rats via oral administration in SDG and MDG, and the same volume of normal saline was orally administered to the SG and MG. Rats were fasted for 12 h before the experiment. Blood was collected from the fundus venous plexus at 0, 5, 10, 15, 30, 45 min, 1, 2, 4, 6, 8, 12, and 24 h after in gavage, placed in a centrifuge tube impregnated with heparin sodium, centrifuged at 3500 rpm for 15 min, and then the plasma was collected and divided into two parts. One part was used for biochemical index determination and the other part was used to determine the content of pharmaceutical ingredients in vivo. After the experiment, the rats were sacrificed, and the hearts were placed in paraformaldehyde for histopathological analysis.
(§4) The plasma sample of 100 μL was accurately absorbed, 50 μL internal standard solution (Nimodipine, 500 ng/mL) was added, then 300 μL acetonitrile precipitated protein was added, vortex for 10 min, placed under ultrasound for 3 min, centrifuged at 13,000 rpm for 10 min, and then the supernatant was transferred to another centrifuge tube. It was then concentrated until dry with a rotary evaporator. The residue was redissolved with 100 μL 50% acetonitrile, swirled for 1 min, placed under ultrasonic for 3 min, centrifuged at 13,000 rpm for 10 min, and the supernatant was taken for analysis.
(§5) A validated HPLC-QQQ-MS/MS method was used for the determination of drug-derived components in plasma samples at different time points. The accompanying standard curve was substituted to calculate the content of the compounds to be measured, and then the PK parameters were calculated using DAS software (version 3.2.8), and the blood concentration–time curve was plotted using GraphPad Prism (version 8.0.2). PK behavior was compared between the sham operation and model group, and PK models were established, respectively.

[3] = myocardial infarction induced by isoproterenol; cited from earlier work
AST = assay: PK-PD sigmoid-Emax model, PD index AST in MDG rats; type: in vivo, SD rats; design: unit not given beside the values
LDH = assay: PK-PD sigmoid-Emax model, PD index LDH in MDG rats
Description: Subsequently, we incorporated the PK and PD data to conduct PK-PD modeling through DAS.
Therefore, PK-PD correlation analysis was used in this study, linking dynamic concentration–time processes and effect–time profile relationships [20, 21, 22]. […] The model adopted in this study is the S-Emax model. In the equation, γ means the shape factor in the formula, affecting the slope and determining the steepness of the curve. Emax can provide the maximum response intensity, and ED50 is for evaluating the safety of the drug, which is understood as the amount of the drug that causes 50% of the maximum response intensity.
Plasma creatine kinase (CK), hydroxybutyrate dehydrogenase (HBDH), lactate dehydrogenase (LDH), and superoxide dismutase (SOD) activity was determined using an automatic biochemical analyzer.
The activity of the CK, HBDH, LDH, and SOD of plasma samples collected at different time points was determined using an automatic biochemical analyzer for PD index evaluation. […] Two compartmental methods were used, employing the drug and statistics, which was supplied by the Chinese Pharmacological Society. Then, the efficacy indicators were fitted in the PK-PD model.

CK = assay: PK-PD sigmoid-Emax model, PD index CK in MDG rats; type: in vivo, SD rats; design: Emax: unit not given beside the values
[4] = PK of five RC components in sham operation administration (SDG, normal) rats after oral RC extract, HPLC-QQQ-MS/MS, DAS; type: in vivo, SD rats; settings: SD, rat, in vivo, po, 2 g/kg
Description: as §1, §2, §3, §4, §5

SOD = assay: PK-PD sigmoid-Emax model, PD index SOD in MDG rats; type: in vivo, SD rats; design: Ke0: unit not given beside the values
HBDH = assay: PK-PD sigmoid-Emax model, PD index HBDH in MDG rats; type: in vivo, SD rats; design: unit not given beside the values

O=C(O)c1cc(O)c(O)c(O)c1 [Gallic Acid, gallic acid]
Stability RE (%) ([1]; 4 °C, 48 h, spiked 10 ng/mL): 100.2%
Stability RE (%) ([1]; 4 °C, 48 h, spiked 50 ng/mL): 103.3%
Stability RE (%) ([1]; 4 °C, 48 h, spiked 400 ng/mL): 99.11%
Stability RE (%) ([1]; three freeze–thaw cycles, spiked 10 ng/mL): 98.58%
Stability RE (%) ([1]; three freeze–thaw cycles, spiked 50 ng/mL): 105.6%
Stability RE (%) ([1]; three freeze–thaw cycles, spiked 400 ng/mL): 90.26%
Stability RE (%) ([1]; −80 °C, 10 days, spiked 10 ng/mL): 99.77%
Stability RE (%) ([1]; −80 °C, 10 days, spiked 400 ng/mL): 96.65%
Stability in plasma samples (in words) ([1]; simulated sample storage, handling and analysis (48 h at 4 °C and 10 days in 3 freeze–thaw cycles)): stable
AUC(0-inf) [2]: 664 ± 221 ng·h/mL
AUC(0-t) [2]: 531 ± 60.9 ng·h/mL
CL/F [2]: 136 mL/min/kg
Cmax [2]: 130 ± 19.9 ng/mL
MRT [2]: 5.53 ± 0.59 h
MRT inf [2]: 13.6 ± 10.6 h
Vd/F [2]: 134 ± 68.9 L/kg
half-life [2]: 13.8 ± 10.9 h
Tmax ([2]; Tmax): 0.92 ± 0.13 h
Tmax ([2]; Tmax (approximate)): ~1 h
CLZ/F in modeled rats vs normal rats [3]: significantly decreased
T1/2 and MRT in modeled rats vs normal rats [3]: prolonged
Emax (AST): 1375.057
Ke0 (AST): 2.998
Emax (LDH): 580.413
Emax (CK): 2290.745
Ke0 (CK): 1.909
AUC(0-inf) [4]: 550 ± 169 ng·h/mL
AUC(0-t) [4]: 475 ± 112 ng·h/mL
CL/F [4]: 165 mL/min/kg
Cmax [4]: 103 ± 16.2 ng/mL
MRT [4]: 4.32 ± 1.26 h
MRT inf [4]: 8.92 ± 5.98 h
Tmax [4]: 0.92 ± 0.13 h
Vd/F [4]: 116 ± 83.1 L/kg
half-life [4]: 10.2 ± 8.73 h
Emax (SOD): 73.435
Ke0 (SOD): 0.022
Emax (HBDH): 3540.625
Ke0 (HBDH): 0.439
